molecular target: Histone-lysine N-methyltransferase ASH1L (Homo sapiens, UniProt Q9NR48); test: Inhibition of MOCR-fused ASH1L SET-BAH ( 2069 to 2833 amino acids) (unknown origin) expressed as in Escherichia coli BL21 (DE3) T1R cells using SAM and chicken mono/dinucleosomes incubated for 1 hr by scintillation counting assay

| Compound | IC50 [µM] |
| --- | --- |
| COc1cc(C(N)=S)cc(-c2cccc3[nH]ccc23)c1 | > 100 |
| NC(=S)c1cccc(-c2cccc3c2ccn3CCO)c1 | > 100 |
| NC(=S)c1cccc(-c2c[nH]c3cc(CNC=O)ccc23)c1 | 20 to 100 |
| NC(=S)c1cc(-c2cccc3[nH]ccc23)ccc1O | > 100 |
| NCc1ccc2c(-c3cccc(C(N)=S)c3)c[nH]c2c1 | 36 |
| NC(=S)c1cccc(-c2ccccc2O)c1 | > 100 |
| NC(=S)c1ccc2cc[nH]c2c1 | > 100 |
| CNc1ccc(-c2cccc3[nH]ccc23)cc1C(N)=S | > 100 |
| NC(=S)c1cccc(-c2cc(C(F)(F)F)cc3[nH]ccc23)c1 | 20 to 100 |
| NC(=S)c1cccc(-c2cccnc2)c1 | > 100 |
| Cc1cc(C)n2c1C=C1C=CC(CCCCC(=O)NCCOCCOc3ccc(-c4cccc(C(N)=S)c4)c4cc[nH]c34)=[N+]1[B-]2(F)F | > 100 |
| COc1c(C(N)=S)cccc1-c1ccc(O)cc1 | > 100 |
| NC(=S)c1ccnc(-n2cccc2)c1 | > 100 |
| COCc1cc2c(-c3cccc(C(N)=S)c3)cccc2n1C | 20 to 100 |
| NC(=S)c1cccc(-c2ccc(S(N)(=O)=O)cc2)c1 | > 100 |
| NCc1ccc(-c2cccc(C(N)=S)c2)cc1 | > 100 |
| NC(=S)c1cccc(-c2cccc3[nH]c(CSP(=S)(c4ccccc4)c4ccccc4)cc23)c1 | > 100 |
| NC(=S)c1cncc(-c2ccc(O)cc2)c1 | > 100 |
| COC(=O)c1ccc2c(-c3cccc(C(N)=S)c3)c[nH]c2c1 | 20 to 100 |
| NC(=S)c1cccc(-c2c[nH]c3cccc(N)c23)c1 | > 100 |
| Cc1ccc(C(N)=S)cc1-c1ccc(O)cc1 | > 100 |

| Compound | IC50 [µM] |
| --- | --- |
| CSCCn1cc(-c2cccc(C(N)=S)c2)c2ccccc21 | > 100 |
| NC(=S)c1cccc(-c2cccc3[nH]ccc23)n1 | > 100 |
| NC(=S)c1cccc(-c2ccc(O)c3c2CCC3=O)c1 | > 100 |
| CC(O)Cn1cc(-c2cccc(C(N)=S)c2)c2ccccc21 (configuration not stated) | 20 to 100 |
| NC(=S)c1cccc(-n2cccc2)c1 | > 100 |
| Cn1cc(-c2cccc(C(N)=S)c2)c2ccccc21 | 20 to 100 |
| NC(=S)c1cccc(-c2cn(Cc3cn[nH]c3)c3cc(N)ccc23)c1 | 20 to 100 |
| Cc1c(O)ccc(-c2cncc(C(N)=S)c2)c1C | > 100 |
| NC(=S)c1cccc(-c2ccc(O)c(F)c2)c1 | > 100 |
| NC(=S)c1cccc(-c2c[nH]c3cc(N)ccc23)c1 | 20 to 100 |
| CC(O)COC(C)Cn1cc(-c2cccc(C(N)=S)c2)c2ccccc21 (configuration not stated) | 20 to 100 |
| NC(=S)c1cncc(-c2cccc3[nH]ccc23)c1 | > 100 |
| NC(=S)c1cccc(-c2ccc(OCCOCCNC(=O)CCCCCNC(=O)c3ccc4c(c3)C(=O)OC43c4ccc(O)cc4Oc4cc(O)ccc43)c3[nH]ccc23)c1 | > 100 |
| NC(=S)c1cc(-c2ccc(O)cc2)ccc1F | > 100 |
| CSC(=N)c1cccc(-c2ccccc2)c1 | > 100 |
| NC(=S)c1cccc(-c2cccc3[nH]c(CO)cc23)c1 | > 100 |
| NC(=S)c1cccc(-c2cccc(OCc3ccccc3)c2)c1 | > 100 |
| NC(=S)c1ccc(N)c(-c2cccc3[nH]ccc23)c1 | > 100 |
| NC(=S)c1cccc(-c2c[nH]c3cnc(N)cc23)c1 | > 100 |
| NC(=S)c1cc(-c2ccc(O)cc2)ccn1 | > 100 |
| NC(=O)c1ccc2c(-c3cccc(C(N)=S)c3)c[nH]c2c1 | > 100 |

| Compound | IC50 [µM] |
| --- | --- |
| Cc1ccc(C(N)=S)cc1-c1cn(C2CCOCC2)c2cc(N)ccc12 | 20 to 100 |
| NC(=S)c1cccs1 | > 100 |
| NC(=S)c1cccc(-c2cccc(O)c2)c1 | > 100 |
| CCn1ccc2c(-c3cccc(C(N)=S)c3)cccc21 | > 100 |
| NC(=S)c1cccc(-c2cn(CCC(F)F)c3cc(CNCCOCCOCCOCCNc4cccc5c4C(=O)N(C4CCC(=O)NC4=O)C5=O)ccc23)c1 (configuration not stated) | < 20 |
| NC(=S)c1cccc(-c2ccc(OCCOCCNC(=O)c3ccc(-c4c5ccc(=O)cc-5oc5cc(O)ccc45)c(C(=O)O)c3)c3[nH]ccc23)c1 | > 100 |
| NCc1ccnc(-n2cccc2)c1 | > 100 |
| NC(=S)c1cc(-c2cn(CC(CF)CF)c3cc(CO)ccc23)ccc1O | < 20 |
| NC(=S)c1cccc(-c2ccccc2)c1 | > 100 |
| NC(=S)c1cccc(-c2cn(CC(CF)CF)c3cc(C(O)CO)ccc23)c1 (configuration not stated) | < 20 |
| NC(=S)c1cccc(-c2c[nH]c3c(CO)cccc23)c1 | 20 to 100 |
| CNCc1ccc2c(-c3cccc(C(N)=S)c3)c[nH]c2c1 | 20 to 100 |
| NC(=S)c1cccc(-n2cc(CCC(F)F)c3cc(CO)ccc32)c1 | < 20 |
| NC(=S)c1cc(-c2cn(CCC(F)F)c3cc(CO)ccc23)c2ocnc2c1 | < 20 |
| NCc1cccc2c(-c3cccc(C(N)=S)c3)c[nH]c12 | 20 to 100 |
| NC(=O)c1cc2c(-c3cccc(C(N)=S)c3)cccc2[nH]1 | > 100 |
| CC(O)c1ccc2c(-c3cccc(C(N)=S)c3)cn(CC(CF)CF)c2c1 (configuration not stated) | < 20 |
| CCCS(=O)(=O)N1CCC(n2cc(-c3cccc(C(N)=S)c3)c3ccc(CNC(=O)CCCCc4cccc5c4C(=O)N(C4CCC(=O)NC4=O)C5=O)cc32)CC1 (configuration not stated) | < 20 |
| NC(=S)c1ccsc1 | > 100 |

Results, then the compound that gave them:

| IC50 [µM] | Compound |
| --- | --- |
| < 20 | CCCS(=O)(=O)N1CCC(n2cc(-c3cccc(C(N)=S)c3)c3ccc(CNC(=O)COc4cccc5c4C(=O)N(C4CCC(=O)NC4=O)C5=O)cc32)CC1 (configuration not stated) |
| < 20 | NC(=S)c1cccc(-c2ccc(CCC(F)F)c3[nH]c(CO)cc23)c1 |
| < 20 | CS(=O)(=O)N1CCC(n2cc(-c3cccc(C(N)=S)c3)c3ccc(CNC(=O)C4CNC4)cc32)CC1 |
| < 20 | NC(=S)c1cccc(-c2cc(CC(CF)CF)c3[nH]ccc3c2)c1 |
| < 20 | NC(=S)c1cccc(-c2cn(CCC(F)F)c3cc(CO)ccc23)n1 |
| < 20 | CS(=O)(=O)N1CCC(n2cc(-c3cccc(C(N)=S)c3)c3ccc(CNC(=O)Cc4cc5ccccc5[nH]4)cc32)CC1 |
| < 20 | NC(=S)c1cccc(-c2cn(CCCC(F)(F)F)c3cc(CNCc4cccnc4)ccc23)c1 |
| < 20 | NC(=S)c1cccc(-c2ccc(CCC(F)F)c3[nH]cnc23)c1 |
| < 20 | NC(=S)c1cccc(-c2cn(CC(CF)CF)c3cc(NC(=O)c4cnc[nH]4)ccc23)c1 |
| < 20 | NC(=S)c1cccc(-c2cn(CCC(F)F)c3cc(CO)c(F)cc23)c1 |
| < 20 | NC(=S)c1cccc(-c2cn(CC(CF)CF)c3cc(CO)ccc23)n1 |
| < 20 | NC(=S)c1cc(-c2cn(CCC(F)F)c3cc(CO)ccc23)c2[nH]ccc2c1 |
| < 20 | NC(=S)c1cccc(-c2cn(CCCC(F)(F)F)c3cc(CNCc4cn[nH]n4)ccc23)c1 |
| < 20 | CCOc1c[nH]c(CC(=O)NCc2ccc3c(-c4cccc(C(N)=S)c4)cn(C4CCN(S(C)(=O)=O)CC4)c3c2)c1 |
| < 20 | CCCS(=O)(=O)N1CCC(n2cc(-c3cccc(C(N)=S)c3)c3ccc(CNc4nnc(N)s4)cc32)CC1 |
| < 20 | NC(=S)c1cccc(-c2cn(CCCC(F)(F)F)c3cc(N)ccc23)n1 |
| < 20 | CCCS(=O)(=O)N1CCC(n2cc(-c3cccc(C(N)=S)c3)c3ccc(CNC(=O)Cc4cc(C)[nH]n4)cc32)CC1 |
| < 20 | CS(=O)(=O)N1CCC(n2cc(-c3cccc(C(N)=S)c3)c3ccc(CNC(=O)Cc4ccc[nH]4)cc32)CC1 |
| < 20 | CC(O)c1ccc2c(-c3cccc(C(N)=S)c3)cn(CCC(F)F)c2c1 (configuration not stated) |
| < 20 | NC(=S)c1cc(-c2cn(CCC(F)F)c3cc(CO)ccc23)c[nH]1 |
| < 20 | NC(=S)c1cccc(-c2cn(CC(CF)CF)c3cc(O)ccc23)c1 |
| < 20 | NC(=S)c1cc(-c2cn(CCC(F)F)c3cc(CO)ccc23)c2cc[nH]c2c1 |
| < 20 | NC(=S)c1cccc(-c2cn(C3CCOCC3)c3cc(N)ccc23)c1 |

| IC50 [µM] | Compound |
| --- | --- |
| < 20 | NC(=S)c1cccc(-n2cc(CC(CF)CF)c3cc(N)ccc32)c1 |
| < 20 | NC(=O)c1cc(-c2cn(CCC(F)F)c3cc(CO)ccc23)ccc1O |
| < 20 | OCc1ccc2c(-c3cccc4c3CNC4=S)cn(CCC(F)F)c2c1 |
| < 20 | NC(=S)c1cccc(-c2cn(CCC(F)F)c3cc(N)ccc23)c1 |
| < 20 | NC(=S)c1cccc(-c2cn(CC(CO)C(F)F)c3cc(CO)ccc23)c1 (configuration not stated) |
| < 20 | NC(=S)c1cccc(-c2cc(CC(CF)CF)c3cc[nH]c3c2)c1 |
| < 20 | NC(=S)c1cccc(-c2cn(C3CCN(S(=O)(=O)CCCCCc4cccc5c4C(=O)N(C4CCC(=O)NC4=O)C5=O)CC3)c3cc(CNc4nnc(N)s4)ccc23)c1 (configuration not stated) |
| < 20 | NC(=S)c1cccc(-c2cn(CC(O)CO)c3cc(N)ccc23)c1 (configuration not stated) |
| < 20 | NC(=S)c1cccc(-c2cn(CC(O)C(F)(F)F)c3cc(CO)ccc23)c1 (configuration not stated) |
| < 20 | NC(=S)c1cccc(-c2cn(CC3(C(F)(F)F)CC3)c3cc(N)ccc23)c1 |
| < 20 | NC(=S)c1cccc(-c2cn(CC3C(F)(F)CC3(F)F)c3cc(CO)ccc23)c1 |
| < 20 | NC(=S)c1cccc(-c2cn(CC(CO)CO)c3cc(N)ccc23)c1 |
| < 20 | NC(=S)c1cccc(-c2cn(CC(O)(CC(F)(F)F)CC(F)(F)F)c3cc(N)ccc23)c1 |
| < 20 | CS(=O)(=O)N1CCC(n2cc(-c3cccc(C(N)=S)c3)c3ccc(CNC(=O)Cc4cc(NCC5CCCCC5)c[nH]4)cc32)CC1 |
| 13 | NCc1ccc2c(-c3cccc(C(N)=S)c3)cn(CCO)c2c1 |
| < 20 | CSCCn1cc(-c2cccc(C(N)=S)c2)c2ccc(N)cc21 |
| < 20 | NC(=S)c1cccc(-c2cn(CCC(F)F)c3cc4c(cc23)CCNC4)c1 |
| < 20 | CCCn1cnc(CC(=O)NCc2ccc3c(-c4cccc(C(N)=S)c4)cn(C4CCN(S(=O)(=O)CCC)CC4)c3c2)c1 |
| < 20 | NC(=S)c1cccc(-c2cn(CCC(F)F)c3cc(CNc4c[nH]cn4)ccc23)c1 |
| < 20 | NC(=S)c1cccc(-c2cn(CC(CF)CF)c3cc(CNCCOCCOCCOCCNc4cccc5c4C(=O)N(C4CCC(=O)NC4=O)C5=O)ccc23)c1 (configuration not stated) |
| < 20 | NC(=S)c1cc(-c2cn(CCC(F)F)c3cc(CO)ccc23)ccc1F |
| < 20 | NC(=S)c1cccc(-c2cn(C3CCN(S(N)(=O)=O)CC3)c3cc(N)ccc23)c1 |
| < 20 | NC(=S)c1cccc(-c2cn(C3CCOCC3)c3cc(-c4ccn[nH]4)ccc23)c1 |

Source: ChEMBL document CHEMBL4482324, “Ash1l inhibitors and methods of treatment therewith” (2017)
